Columns and labels:
[1] = Trained sensory panel, burn sensation after brushing with menthol dentifrice; format: in vivo, human; design: key: 0 = no burning to 60 = highest intensity; 7.5 difference = significant; details: scale 0-60
Experimental: (§1) For EXAMPLES 6 and 7 sensory evaluation studies of menthol and hydrogen peroxide activity were conducted using a methodology patterned after the techniques described in M. C. Meilgaard, et al., Sensory Evaluation Techniques, 4th Ed. (2007). In one study, a panel of 8-15 trained sensory experts evaluated the menthol or peroxide sensations experienced after brushing with a dentifrice containing the menthol or hydrogen peroxide and the respective TRPA1 or TRPV1 antagonists. Panelists brushed teeth with 1.5 grams of a dentifrice (containing coolant) or control (no coolant) and then expectorated. After brush expectoration, panelists evaluated the burn intensity, assigning a number between 0 (no burning) to 60 ([…]). After rinse expectoration, panelists evaluated burning intensity according to the same 0 to 60 scale. Evaluations were conducted at 5, 15, 30, 45, 60 minute, etc. time points. At each evaluation, panelists were instructed to breathe in through pursed lips and evaluate overall burning sensation. In this test, a numerical score difference from the control of 7.5 indicates user significant differences or definite reduction in burning at the specified time point. Measures between 4.0 to 7.5 indicate a noticeable trend in the specified parameter, which is not statistically significant, but noticeable.
For EXAMPLE 6 (TABLES 8 and 9), a panel of 14 trained sensory experts evaluated the sensory profile experienced after brushing with the dentifrice sample formulations shown in TABLES 6 and 7 containing high levels of menthol followed by rinsing with water. Panelists brushed teeth with 1.5 grams of a test dentifrice (containing high menthol levels) or control (no menthol) for 36 seconds and then expectorated. The dentifrice sample formulations (control and high L-Menthol) are shown below in TABLE 6 (with peppermint flavor) and TABLE 7 (with spearmint flavor). The dentifrices were made using conventional methods and are shown below with component amounts in weight % of total composition. […]
For TABLE 10 all the Samples had the same formulation as Sample E from TABLE 6, except for the Control which lacked menthol. After brushing or mouthwash expectoration, panelists evaluated the burning sensation, assigning a number between 0 (no sensation) to 60 (highest intensity sensation). Evaluations were conducted at 5, 10, 20 and 30 minute time points, following expectoration. At each evaluation, panelists were instructed to breathe in through pursed lips and evaluate overall sensation. In this test, a numerical score of 7.5 indicates a significant user noticeable sensation. Differences less than 7.5, but greater than 5.0 indicate the trending of the data on a specific attribute.

[2] = Trained sensory panel, burning and numbing sensation after hydrogen peroxide mouthwash; format: in vivo, human; design: key to Burning Sensation: 0 = no sensation, 60 = highest intensity sensation; details: scale 0-60
Experimental: as §1
For EXAMPLE 7, a panel of 10 trained sensory experts evaluated the sensory profile experienced after rinsing with 30 grams of a test mouthwash (containing hydrogen peroxide and TRPA1 or TRPV1 antagonist) or control (containing hydrogen peroxide and no TRPA1 or TRPV1 antagonist) for 30 seconds and then expectorated. After expectoration, panelists evaluated the sensorial profile (cooling, warming, burning, numbing, and astringency), assigning a number between 0 (no sensation) to 60 (highest intensity sensation). Evaluations were conducted at 2.5, 5, 10, 20, and 30 minute time points, following expectoration at each evaluation, panelists were instructed to breathe in through pursed lips and evaluate overall burning or numbing sensation. The hydrogen peroxide containing mouthwash formulations are shown below in TABLE 11. The mouthwash samples tested comprised a control having the components listed in TABLE 11 by weight % of the composition or the control formulation plus TRPA1 or TRPV1 antagonist, as shown in TABLE 12. The mouthwashes were made using conventional methods and are shown below with amounts in weight % of total composition.

human TRPA1 = human TRPA1 (Homo sapiens, UniProt O75762); assay: FLIPR Ca2+ assay, reduction of hydrogen peroxide activation of TRPA1; format: cell-based; design: expressed in transfected cells
Experimental: After centrifugation, a pellet of cells was formed in the bottom of the tube separating them from the supernatant solution.
(§2) The pelleted cells were re-suspended in 10 ml assay buffer and 90 μl aliquots (˜50,000 cells) per well delivered to a 96-well assay plate containing 10 μl of test compounds ([…]) or buffer control and incubated at room temperature for 30 minutes.

human TRPV1 [3] = target: T1, human TRPV1 (Homo sapiens, UniProt Q8NER1); assay: FLIPR Ca2+ assay, reduction of hydrogen peroxide activation of TRPV1; format: cell-based; design: expressed in transfected cells
Experimental: (§3) Cells were detached with addition of 10 ml of PBS (phosphate buffered saline) by hand shaking gently. Cells were transferred to a 50 ml tube and centrifuged at 850 rpm for 3 minutes to remove PBS.
The pelleted cells were re-suspended in 10 ml assay buffer and 90 μl aliquots (˜50,000 cells) per well delivered to a 96-well assay plate containing 10 μl of test compounds (1 mM in assay buffer, […]) or buffer control and incubated at room temperature for 30 minutes.

human TRPV1 [4] = target: T1, human TRPV1; assay: FLIPR Ca2+ assay, reduction of capsaicin activation of TRPV1; format: cell-based; design: expressed in transfected cells
Experimental: as §3, §2

[5] = Headspace GC reduction of 1-propanethiol by protectant (Michael Acceptor) compounds; details: for Percent Thiol Reduction vs. Control: 0.1% SLS
Experimental: For EXAMPLES 11 and 12 a 0.1% sodium lauryl sulfate (SLS) aqueous solution was prepared to contain either 1 ppm or 10 ppm of 1-propanethiol. SLS solution was added to the sample and control solutions to assist in solubilization of the more hydrophobic compounds. Control solutions contained surfactant and 1-propanethiol, while sample solutions contained these components plus a protectant compound added at either 0.01% or 0.05%. 100 μL aliquots of control or test solutions were aliquotted into a 22 mL headspace vial, vortexed for 30 seconds, and incubated for 30 minutes at 60 C in an oven. After that period, 1 mL of head space was sampled and injected into an Agilent 7890 gas chromatograph equipped with a sulfur chemiluminescence detector (GC-SCD). Peak areas of the 1-propanethiol control sample (no protectant compound added) were established by triplicate injection of the control sample. The area of the propanethiol peak produced from samples containing selected protectant molecules were then determined and ratioed to the 1-propanethiol control peak area, subtracted from 1, and multiplied by 100 to calculate percent reduction of the thiol peak, thus indicating the effectiveness of each protectant at reducing the level of thiol.
The samples in TABLE 17 were prepared by combining 1 ppm 1-propanethiol with 0.1% sodium lauryl sulfate with 1% of the test compounds. The volatile sulfurs were measured with headspace GC/MS using a SPEME column to capture the volatile sulfur.
The samples in TABLE 18 were prepared by combining either 1 or 10 ppm 1-propanethiol with 0.1% sodium lauryl sulfate with either 0.01% or 0.05% of the test compounds.

[6] = 5 Min After Rinse, dentifrice Sample E (1% menthol) with antagonist levels as E42
[7] = 10 Min After Rinse, dentifrice Sample E (1% menthol) with antagonist levels as E42
[8] = 20 Min After Rinse, dentifrice Sample E (1% menthol) with antagonist levels as E42
[9] = 30 Min After Rinse, dentifrice Sample E (1% menthol) with antagonist levels as E42
[10] = After Expectoration, dentifrice Sample E (1% added menthol) with Apritone 200 ppm, Dihydrojasmone 6 ppm, Isobornyl Isobutyrate 100 ppm, α-heptyl-γ-valerolactone 100 ppm as named
[11] = After Rinse, dentifrice Sample E (1% menthol) with antagonist levels as E42
[12] = 2 Min 30 SEC After Expectoration, H2O2 mouthwash, antagonist levels as E48
[13] = 5 Min After Expectoration, H2O2 mouthwash, antagonist levels as E48
[14] = 10 Min After Expectoration, H2O2 mouthwash, antagonist levels as E48
[15] = 20 Min After Expectoration, H2O2 mouthwash, antagonist levels as E48
[16] = 30 Min After Expectoration, H2O2 mouthwash, antagonist levels as E48
[17] = After Expectoration, H2O2 mouthwash, antagonist levels as E48
[18] = 1 ppm 1-propanethiol, 0.01% test compound
[19] = 1 ppm 1-propanethiol, 0.05% test compound
[20] = 10 ppm 1-propanethiol, 0.01% test compound
[21] = 10 ppm 1-propanethiol, 0.05% test compound

T1 sequence (Q8NER1 whole entry): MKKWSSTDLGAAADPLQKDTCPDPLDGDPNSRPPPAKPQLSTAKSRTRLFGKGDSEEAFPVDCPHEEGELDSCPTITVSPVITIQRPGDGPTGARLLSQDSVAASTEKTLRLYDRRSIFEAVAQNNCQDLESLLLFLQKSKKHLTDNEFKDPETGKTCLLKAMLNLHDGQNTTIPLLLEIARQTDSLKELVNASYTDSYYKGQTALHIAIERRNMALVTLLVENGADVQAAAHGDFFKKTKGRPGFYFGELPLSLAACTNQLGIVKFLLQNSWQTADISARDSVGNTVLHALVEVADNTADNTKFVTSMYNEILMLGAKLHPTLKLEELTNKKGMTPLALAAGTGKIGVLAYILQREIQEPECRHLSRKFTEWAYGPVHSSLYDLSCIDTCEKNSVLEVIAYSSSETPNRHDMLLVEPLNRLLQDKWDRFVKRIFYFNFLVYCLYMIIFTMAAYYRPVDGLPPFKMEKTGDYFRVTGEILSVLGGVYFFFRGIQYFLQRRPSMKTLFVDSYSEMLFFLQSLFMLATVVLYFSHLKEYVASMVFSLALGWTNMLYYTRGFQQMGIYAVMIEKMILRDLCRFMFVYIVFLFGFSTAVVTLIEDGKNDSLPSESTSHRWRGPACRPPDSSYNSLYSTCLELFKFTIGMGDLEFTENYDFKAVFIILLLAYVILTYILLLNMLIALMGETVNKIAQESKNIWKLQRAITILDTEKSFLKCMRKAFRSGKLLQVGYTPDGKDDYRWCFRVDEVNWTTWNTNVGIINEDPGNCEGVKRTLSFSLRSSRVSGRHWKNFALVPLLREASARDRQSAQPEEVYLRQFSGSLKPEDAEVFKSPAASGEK
Sequence of human TRPA1 (O75762 whole entry): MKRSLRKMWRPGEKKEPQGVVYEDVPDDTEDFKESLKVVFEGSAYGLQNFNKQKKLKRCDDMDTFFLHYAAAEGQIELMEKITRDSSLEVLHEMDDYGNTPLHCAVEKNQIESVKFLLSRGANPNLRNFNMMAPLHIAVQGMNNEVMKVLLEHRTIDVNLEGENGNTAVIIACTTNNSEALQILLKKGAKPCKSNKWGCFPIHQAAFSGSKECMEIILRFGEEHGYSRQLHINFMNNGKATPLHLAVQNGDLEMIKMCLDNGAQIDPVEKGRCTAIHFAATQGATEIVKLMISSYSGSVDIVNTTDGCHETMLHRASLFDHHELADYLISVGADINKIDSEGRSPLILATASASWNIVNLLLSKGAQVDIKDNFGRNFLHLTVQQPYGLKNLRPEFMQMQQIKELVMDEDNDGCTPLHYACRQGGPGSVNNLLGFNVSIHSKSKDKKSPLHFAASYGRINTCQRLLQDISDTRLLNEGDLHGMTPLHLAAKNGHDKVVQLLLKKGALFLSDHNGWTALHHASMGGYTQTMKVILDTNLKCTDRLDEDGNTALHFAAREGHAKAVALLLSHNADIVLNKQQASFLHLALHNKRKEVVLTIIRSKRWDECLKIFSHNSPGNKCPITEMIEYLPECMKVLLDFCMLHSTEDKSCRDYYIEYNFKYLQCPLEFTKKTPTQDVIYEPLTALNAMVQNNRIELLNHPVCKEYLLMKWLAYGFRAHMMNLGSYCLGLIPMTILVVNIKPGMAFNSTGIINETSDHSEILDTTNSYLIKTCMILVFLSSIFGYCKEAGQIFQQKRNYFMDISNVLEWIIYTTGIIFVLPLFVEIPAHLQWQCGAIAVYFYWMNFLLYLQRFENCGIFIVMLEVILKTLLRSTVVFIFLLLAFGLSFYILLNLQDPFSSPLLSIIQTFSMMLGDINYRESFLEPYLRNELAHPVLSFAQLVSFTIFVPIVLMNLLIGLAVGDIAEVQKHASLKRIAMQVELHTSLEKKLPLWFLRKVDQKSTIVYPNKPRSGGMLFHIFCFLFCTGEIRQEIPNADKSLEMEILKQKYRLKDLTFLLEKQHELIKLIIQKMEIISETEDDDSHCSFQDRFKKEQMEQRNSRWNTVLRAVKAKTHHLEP

CC(C)C(=O)O[C@@H]1C[C@H]2CC[C@]1(C)C2(C)C [Isobornyl Isobutyrate]
Burning Sensation Rating [1, 6]: 12.8
Burning Sensation Rating [1, 7]: 5.6
Burning Sensation Rating [1, 8]: 0.6
Burning Sensation Rating [1, 9]: 0.0
Burning Sensation Rating [1, 10]: 25.4
Burning Sensation Rating [1, 11]: 22.8
Burning Sensation [2, 12]: 17.6
Numbing Sensation [2, 12]: 7.9
Burning Sensation [2, 13]: 11.4
Numbing Sensation [2, 13]: 5.8
Burning Sensation [2, 14]: 5.1
Numbing Sensation [2, 14]: 2.5
Burning Sensation [2, 15]: 0.0
Numbing Sensation [2, 15]: 0.0
Burning Sensation [2, 16]: 0.0
Numbing Sensation [2, 16]: 0.0
Burning Sensation [2, 17]: 20.9
Numbing Sensation [2, 17]: 8.4
Burning Sensation ([2]; Initial in Mouth, hydrogen peroxide mouthwash (TABLE 11) with Apritone 200 ppm, Isobornyl Isobutyrate 100 ppm, Dihydrojasmone 6 ppm as named, 10 panelists): 12.7
% Reduction of Hydrogen Peroxide TRPA1 Activation (human TRPA1): 80%
Block of hydrogen peroxide activation of TRPA1 (human TRPA1): BLOCK ONLY H2O2/TRPA1
reduction of hydrogen peroxide activation of TRPA1, in words (human TRPA1): reduced hydrogen peroxide activation of TRPA1
reduction of hydrogen peroxide activation of TRPV1, in words (human TRPV1 [3]): hydrogen peroxide reduction of TRPV1
% inhibition of TRPV1 activation by 500 uM H2O2 (human TRPV1 [3]; Dose 1000): 52%
% Reduction of Hydrogen Peroxide TRPV1 Activation (human TRPV1 [3]; antagonist 100 μM against 500 μM hydrogen peroxide): 52%
Ca++ counts (human TRPV1 [3]; with compound, Dose 1000, 500 uM H2O2): 541
% inhibition of TRPV1 activation by 350 nM Capsaicin (human TRPV1 [4]; Dose 1000): 1.5%
Ca++ counts (human TRPV1 [4]; with compound, Dose 1000, 350 nM Capsaicin): 14803

CC1=CC(=O)CC(C)(C)C1 [Isophorone]
% Thiol Reduction ([5]; 1 ppm 1-propanethiol, 0.1% sodium lauryl sulfate, 1% test compound, headspace): 43.1%

CC/C=C\CC1=C(C)CCC1=O [cis-Jasmone]
Percent Thiol Reduction vs. Control [5, 18]: 36.1%
Percent Thiol Reduction vs. Control [5, 19]: 55.3%
Percent Thiol Reduction vs. Control [5, 20]: 25.4%
Percent Thiol Reduction vs. Control [5, 21]: 8.2%

C/C=C/C(=O)C1C(C)C=CCC1(C)C (centres unmarked) [delta damascone]
thiol reduction, comparison in words ([5]; 10 ppm 1-propanethiol, compound 0.01%): higher activity at its lower concentration (0.01%) than any of the other michael acceptor's

C/C=C/C(=O)C1C(C)C=CCC1(C)C (centres unmarked) [delta-Damascone]
Percent Thiol Reduction vs. Control [5, 18]: 77.7%
Percent Thiol Reduction vs. Control [5, 19]: 82.3%
Percent Thiol Reduction vs. Control [5, 20]: 81.0%
Percent Thiol Reduction vs. Control [5, 21]: 81.2%

CCCCCCCC1CC(C)OC1=O (stereo not drawn) [α-heptyl-γ-valerolactone]
Burning Sensation Rating [1, 6]: 13.8
Burning Sensation Rating [1, 7]: 1.3
Burning Sensation Rating [1, 8]: 0.0
Burning Sensation Rating [1, 9]: 0.0
Burning Sensation Rating [1, 10]: 25.4
Burning Sensation Rating [1, 11]: 21.5

— patent US20130315843A1, “COMPOSITION FOR REDUCTION OF TRPA1 AND TRPV1 SENSATIONS” (priority 2012, published 2013)
